The source of these data is ChEMBL document CHEMBL3046626, “Antifungal chalcones and new caffeic acid esters from Zuccagnia punctata acting against soybean infecting fungi” (2004).

Values after ≈ are worked out from the molar mass of the structure shown.

Format in all cases: functional
Test [1] has as its system Macrophomina phaseolina. The test is described as follows: Antifungal activity against Macrophomina phaseolina isolate CE173 after 48 to 72 hr.
The subject of test [2] is Colletotrichum truncatum. Description: Antifungal activity against Colletotrichum truncatum CE175 after 48 to 72 hr.
Test [3] deals with Alternaria alternata. The test is described as follows: Antifungal activity against Alternaria alternata (CE172) after 48 to 72 hr.
Test [4] relates to Fusarium equiseti. The test is described as follows: Antifungal activity against Fusarium equiseti (CE181) after 48 to 72 hr.
For test [5], the system named is Diaporthe longicolla. Description: Antifungal activity against Diaporthe longicolla CE117 after 48 to 72 hr.
Test [6] relates to Fusarium graminearum. Description: microbe, parasite or virus in culture. As to conditions: isolate CE169.
Test [7] relates to Fusarium graminearum. The test is described as follows: microbe, parasite or virus in culture. The settings on record: isolate CE171.
Test [8] relates to Fusarium graminearum. Description: microbe, parasite or virus in culture. As to conditions: isolate CE135.
Test [9] has as its system Fusarium graminearum. The test is described as follows: microbe, parasite or virus in culture. As to conditions: isolate CE170.

As for `CC(CCc1ccc(O)cc1)OC(=O)/C=C/c1ccc(O)c(O)c1` (stereo unspecified), the MIC in [1] is above 50 µg/mL; in [2], above 50 µg/mL; in test [3] it was above 50 µg/mL; in [4], above 50 µg/mL; in test [5], 6.25 µg/mL (≈ 19 µM); in test [6], above 50 µg/mL. Also, the MIC in [7], in test [8] and in test [9] was above 50 µg/mL each time.

Consider `CC(CCc1ccc(O)c(O)c1)OC(=O)/C=C/c1ccc(O)c(O)c1` (stereo unspecified), for which the MIC in test [1], in test [2], in test [3], in test [4], in test [5] and in test [6] was above 50 µg/mL throughout. The MIC in test [7], in [8] and in [9] was above 50 µg/mL throughout.

Turning to `O=C(/C=C/c1ccccc1)c1ccc(O)cc1O` [2',4'-DIHYDROXYCHALCONE], the MIC in test [1] turned out to be 50 µg/mL (≈ 208 µM); in test [2], 6.25 µg/mL (≈ 26 µM); in test [3], 25 µg/mL (≈ 104 µM); in test [4] it was 25 µg/mL (≈ 104 µM); in test [5], 3.12 µg/mL (≈ 13 µM); in test [6] it was 25 µg/mL (≈ 104 µM). In addition, the MIC in test [7], in test [8] and in [9] was 25 µg/mL (≈ 104 µM) each time.

As for `CO/C=C(/C(=O)OC)c1ccccc1Oc1cc(Oc2ccccc2C#N)ncn1` [AZOXYSTROBIN], the MIC in test [1] turned out to be 2.5 µg/mL (≈ 6.2 µM); in [2], 0.05 µg/mL (≈ 0.124 µM); in [3], 2.5 µg/mL (≈ 6.2 µM); in test [4], 12.5 µg/mL (≈ 31 µM); in test [5], 0.05 µg/mL (≈ 0.124 µM); in test [6] it was 7.5 µg/mL (≈ 18.6 µM). In addition, the figures for the MIC in [7], in test [8] and in test [9] were 0.4 µg/mL (≈ 0.992 µM), 5 µg/mL (≈ 12.4 µM) and 0.25 µg/mL (≈ 0.62 µM), respectively.

Turning to `COC(=O)Nc1nc2ccccc2[nH]1` [CARBENDAZIM], the MIC in test [1] came out at 0.25 µg/mL (≈ 1.31 µM); in [2] it was 0.01 µg/mL (≈ 0.0523 µM); in [3], 75 µg/mL (≈ 392 µM); in [4] it was 0.75 µg/mL (≈ 3.92 µM); in test [5] it was 0.01 µg/mL (≈ 0.0523 µM); in test [7], 0.4 µg/mL (≈ 2.09 µM). The MIC in test [8] and in [9] was 0.75 µg/mL (≈ 3.92 µM) throughout.

In the case of `CC(=O)N1CCN(c2ccc(OCC3COC(Cn4ccnc4)(c4ccc(Cl)cc4Cl)O3)cc2)CC1` (stereo unspecified) [KETOCONAZOLE], the MIC in test [1] was found to be 50 µg/mL (≈ 94.1 µM); in test [2], 1.5 µg/mL (≈ 2.82 µM); in test [3] it was 5 µg/mL (≈ 9.41 µM); in [4] it was 50 µg/mL (≈ 94.1 µM); in [5] it was 0.5 µg/mL (≈ 0.941 µM); in [6], 40 µg/mL (≈ 75.3 µM). Besides, the MIC in test [7], in test [8] and in test [9] was 40 µg/mL (≈ 75.3 µM) in each case.

On to `COc1c(O)ccc(C(=O)/C=C/c2ccccc2)c1O` [LARREIN], for which the MIC was found to be 50 µg/mL (≈ 185 µM) in test [1]; 6.25 µg/mL (≈ 23.1 µM) in test [2]; 25 µg/mL (≈ 92.5 µM) in [3]; 25 µg/mL (≈ 92.5 µM) in [4]; 6.25 µg/mL (≈ 23.1 µM) in [5]; 12.5 µg/mL (≈ 46.2 µM) in [6]. In addition, the MIC in test [7] came to 12.5 µg/mL (≈ 46.2 µM); in test [8] it was 12.5 µg/mL (≈ 46.2 µM); in test [9] it was 25 µg/mL (≈ 92.5 µM).

With `COC(=O)N(OC)c1ccccc1COc1ccn(-c2ccc(Cl)cc2)n1` [PYRACLOSTROBIN], the MIC in [1] was 2.5 µg/mL (≈ 6.45 µM); in test [2], 0.04 µg/mL (≈ 0.103 µM); in test [3], 0.4 µg/mL (≈ 1.03 µM); in test [4], 12.5 µg/mL (≈ 32.2 µM); in [5], 0.01 µg/mL (≈ 0.0258 µM); in [6], 20 µg/mL (≈ 51.6 µM). The MIC in [7] is 0.05 µg/mL (≈ 0.129 µM); in test [8], 1 µg/mL (≈ 2.58 µM); in test [9], 0.05 µg/mL (≈ 0.129 µM).
